Measured values taken from paper PMC5459446, “A phase I study of single-agent perifosine for recurrent or refractory pediatric CNS and solid tumors” (PLoS ONE, 2017).
Counter-ions that a name gives are not always drawn.

Legend:
[1] = test system: medulloblastoma cell lines; set-up: method as in PMID 19887560, PMID 26269112; details: cited from earlier work
[2] = test system: mouse brainstem glioma model; set-up: method as in PMID 25712742; details: doses demonstrated to be effective in cell culture; cited from earlier work
[3] = test system: mTOR pathway / autophagy; set-up: method as in PMID 19920197; details: doses as low as; cited from earlier work
[4] = test system: telomerase; set-up: method as in PMID 26307677; details: cited from earlier work
[5] = set-up: method as in PMID 25740692; details: oral, adult non-tumor bearing rhesus monkeys, cerebrospinal fluid; cited from earlier work
[6] = test system: Rhabdomyosarcoma cell lines; set-up: method as in PMID 19887560, PMID 26269112; details: cited from earlier work
[7] = test system: pediatric patients with recurrent or refractory CNS and solid tumors; assay: Phase I dose-escalation toxicity assessment (Common Toxicity Criteria v3.0, DLT, MTD); assay type: in vivo
Method: This was a standard 3+3 phase I dose escalation study (NCT00776867) investigating 5 dose levels. Perifosine was only available as 50-mg tablets, complicating the phase I dose escalation scheme. A loading dose was administered on day 1 and subsequent maintenance doses were administered every 1 to 4 days, depending on dose level and BSA, with the goal of achieving dose levels of 25, 50, 75, 100, and 125 mg/m^2/day (Tables 1–5). This dosing scheme, incorporating drug administration as infrequently as every 4 days, was made possible by perifosine’s long half-life. Treatment was continued until disease progression, intolerable toxicity, DLT, or death was encountered. Subjects experiencing DLT but with evidence of clinical benefit at dose level 1, 2, or 3 were eligible to remain on study with a dose level reduction. […]
Toxicity was assessed according to the Common Toxicity Criteria (version 3.0) of the National Cancer Institute, National Institutes of Health. DLT was defined as (1) any non-hematological toxicity grade ≥ 3 [except for grade 3 nausea, vomiting, and diarrhea that could be controlled within 24 hours with supportive care measures]; (2) grade 4 neutropenia on 2 consecutive blood counts drawn at least 72 hours apart; (3) grade 4 febrile neutropenia [ANC < 1000/μL and fever ≥ 38.5°C] or grade ≥ 3 documented infection with ANC < 1000/μL, or; (4) a platelet count < 25,000/μL. Grade ≥ 3 decrease in hemoglobin that could be corrected to at least 8 g/dl (grade 2) by transfusion of red blood cells, grade ≥ 3 leukopenia in the absence of dose-limiting neutropenia, and grade ≥ 3 lymphopenia were not considered DLTs.
The DLT assessment period was the first 28-day cycle. If therapy was discontinued during the first cycle for reasons other than toxicity, an additional subject could be enrolled at that dose level to ensure adequate evaluation of toxicity. No intra-patient dose escalation was permitted.

[8] = 23 patients, all dose levels, at least possibly related
[9] = 23 patients, all dose levels, at least possibly related, listed as Perifosine

Compound: CCCCCCCCCCCCCCCCCCOP(=O)([O-])OC1CC[N+](C)(C)CC1 [perifosine, 1,1-Dimethyl-4-[[(octadecyloxy)hydroxyphosphinyl]oxy]-piperidinium inner salt]
- IC50 [1]: 25 µM
- Acute toxicity after convection enhanced delivery [2]: no serious acute toxicities
- Lowest dose degrading mTOR pathway components and inducing autophagy [3]: 5 µM
- Doses inhibiting telomerase activity [4]: low micromolar
- CNS penetration [5]: limited
- IC50 [6]: ~10 µM
- MTD ([7]; 5 dose levels, 25 to 125 mg/m2/day): not defined
- ALT, Any Grade, % [7, 8]: 39.13%
- ALT, Any Grade, No. [7, 8]: 9
- ALT, Grade 3 or 4, % [7, 8]: 0.00%
- ALT, Grade 3 or 4, No. [7, 8]: 0
- AST, Any Grade, % [7, 8]: 26.09%
- AST, Any Grade, No. [7, 8]: 6
- AST, Grade 3 or 4, % [7, 8]: 0.00%
- Decreased hemoglobin, Grade 3 or 4, % [7, 8]: 0.00%
- Decreased hemoglobin, Grade 3 or 4, No. [7, 8]: 0
- Decreased leukocytes, Any Grade, % [7, 8]: 47.83%
- Decreased leukocytes, Any Grade, No. [7, 8]: 11
- Decreased leukocytes, Grade 3 or 4, % [7, 8]: 0.00%
- Decreased leukocytes, Grade 3 or 4, No. [7, 8]: 0
- Decreased neutrophils (neutropenia), Grade 3 or 4, % [7, 8]: 8.7%
- Decreased neutrophils, Any Grade, % [7, 8]: 26.09%
- Decreased neutrophils, Any Grade, No. [7, 8]: 6
- Decreased neutrophils, Grade 3 or 4, No. [7, 8]: 2
- Decreased platelets, Any Grade, % [7, 8]: 21.74%
- Decreased platelets, Any Grade, No. [7, 8]: 5
- Decreased platelets, Grade 3 or 4, % [7, 8]: 0.00%
- Decreased platelets, Grade 3 or 4, No. [7, 8]: 0
- Diarrhea, Any Grade, % [7, 8]: 43.48%
- Diarrhea, Any Grade, No. [7, 8]: 10
- Diarrhea, Grade 3 or 4, % [7, 8]: 0.00%
- Diarrhea, Grade 3 or 4, No. [7, 8]: 0
- Fatigue, Any Grade, % [7, 8]: 65.22%
- Fatigue, Any Grade, No. [7, 8]: 15
- Fatigue, Grade 3 or 4, % [7, 8]: 4.35%
- Fatigue, Grade 3 or 4, No. [7, 8]: 1
- Fever, Any Grade, % [7, 8]: 21.74%
- Fever, Any Grade, No. [7, 8]: 5
- Fever, Grade 3 or 4, % [7, 8]: 4.35%
- Fever, Grade 3 or 4, No. [7, 8]: 1
- Flatulence, Any Grade, % [7, 8]: 13.04%
- Flatulence, Any Grade, No. [7, 8]: 3
- Flatulence, Grade 3 or 4, % [7, 8]: 0.00%
- Flatulence, Grade 3 or 4, No. [7, 8]: 0
- Hyperglycemia, Any Grade, % [7, 8]: 60.87%
- Hyperglycemia, Any Grade, No. [7, 8]: 14
- Hyperglycemia, Grade 3 or 4, % [7, 8]: 4.35%
- Hyperglycemia, Grade 3 or 4, No. [7, 8]: 1
- Hyperuricemia, Any Grade, % [7, 8]: 4.35%
- Hyperuricemia, Any Grade, No. [7, 8]: 1
- Hyperuricemia, Grade 3 or 4, % [7, 8]: 4.35%
- Hyperuricemia, Grade 3 or 4, No. [7, 8]: 1
- Hypocalcemia, Any Grade, % [7, 8]: 21.74%
- Hypocalcemia, Any Grade, No. [7, 8]: 5
- Hypocalcemia, Grade 3 or 4, % [7, 8]: 0.00%
- Hypocalcemia, Grade 3 or 4, No. [7, 8]: 0
- Hypokalemia, Any Grade, % [7, 8]: 21.74%
- Hypokalemia, Any Grade, No. [7, 8]: 5
- Hypokalemia, Grade 3 or 4, % [7, 8]: 0.00%
- Hypokalemia, Grade 3 or 4, No. [7, 8]: 0
- Hypomagnesemia, Any Grade, % [7, 8]: 13.04%
- Hypomagnesemia, Any Grade, No. [7, 8]: 3
- Hypomagnesemia, Grade 3 or 4, % [7, 8]: 0.00%
- Hypomagnesemia, Grade 3 or 4, No. [7, 8]: 0
- Hyponatremia, Any Grade, % [7, 8]: 21.74%
- Hyponatremia, Any Grade, No. [7, 8]: 5
- Hyponatremia, Grade 3 or 4, % [7, 8]: 0.00%
- Hyponatremia, Grade 3 or 4, No. [7, 8]: 0
- Hypophosphatemia, Any Grade, % [7, 8]: 13.04%
- Hypophosphatemia, Any Grade, No. [7, 8]: 3
- Hypophosphatemia, Grade 3 or 4, % [7, 8]: 0.00%
- Hypophosphatemia, Grade 3 or 4, No. [7, 8]: 0
- Infection URI, Any Grade, % [7, 8]: 17.39%
- Infection URI, Any Grade, No. [7, 8]: 4
- Infection URI, Grade 3 or 4, % [7, 8]: 0.00%
- Infection URI, Grade 3 or 4, No. [7, 8]: 0
- Infection—catheter related, Any Grade, % [7, 8]: 4.35%
- Infection—catheter related, Any Grade, No. [7, 8]: 1
- Infection—catheter related, Grade 3 or 4, % [7, 8]: 4.35%
- Infection—catheter related, Grade 3 or 4, No. [7, 8]: 1
- Lymphopenia, Any Grade, % [7, 8]: 17.39%
- Lymphopenia, Any Grade, No. [7, 8]: 4
- Lymphopenia, Grade 3 or 4, % [7, 8]: 0.00%
- Lymphopenia, Grade 3 or 4, No. [7, 8]: 0
- Nausea, Any Grade, % [7, 8]: 65.22%
- Nausea, Any Grade, No. [7, 8]: 15
- Nausea, Grade 3 or 4, % [7, 8]: 0.00%
- Nausea, Grade 3 or 4, No. [7, 8]: 0
- Pain—abdomen NOS, Any Grade, % [7, 8]: 21.74%
- Pain—abdomen NOS, Any Grade, No. [7, 8]: 5
- Pain—abdomen NOS, Grade 3 or 4, % [7, 8]: 0.00%
- Pain—abdomen NOS, Grade 3 or 4, No. [7, 8]: 0
- Pain—stomach, Any Grade, % [7, 8]: 13.04%
- Pain—stomach, Any Grade, No. [7, 8]: 3
- Pain—stomach, Grade 3 or 4, % [7, 8]: 0.00%
- Pain—stomach, Grade 3 or 4, No. [7, 8]: 0
- Vomiting, Any Grade, % [7, 8]: 56.52%
- Vomiting, Any Grade, No. [7, 8]: 13
- Vomiting, Grade 3 or 4, % [7, 8]: 0.00%
- Vomiting, Grade 3 or 4, No. [7, 8]: 0
- Decreased leukocytes, Any Grade, % [7, 9]: 47.8%
- Fatigue, Any Grade, % [7, 9]: 65.2%
- Hyperglycemia, Any Grade, % [7, 9]: 60.9%
- Nausea, Any Grade, % [7, 9]: 65.2%
- Vomiting, Any Grade, % [7, 9]: 56.5%
- Number of DLTs ([7]; grade 4 hyperuricemia at dose level 4, 23 patients, 5 dose levels): one
- AST, Grade 3 or 4, No. ([7]; human, in vivo): 0
- Anorexia, Any Grade, % ([7]; human, in vivo): 30.43%
- Anorexia, Any Grade, No. ([7]; human, in vivo): 7
- Anorexia, Grade 3 or 4, % ([7]; human, in vivo): 0.00%
- Anorexia, Grade 3 or 4, No. ([7]; human, in vivo): 0
- Constipation, Any Grade, % ([7]; human, in vivo): 13.04%
- Constipation, Any Grade, No. ([7]; human, in vivo): 3
- Constipation, Grade 3 or 4, % ([7]; human, in vivo): 0.00%
- Constipation, Grade 3 or 4, No. ([7]; human, in vivo): 0
- Decreased hemoglobin, Any Grade, % ([7]; human, in vivo): 43.48%
- Decreased hemoglobin, Any Grade, No. ([7]; human, in vivo): 10
